Tested on: backs of 16 test persons
Test: In vivo test for antiperspirant activity (sauna sweat test, gravimetric)
Set-up: species or system human
Settings: 5.0% by weight aqueous solution, 75 μL applied on the back on four consecutive days; measured 24 h after last application; about 15 minutes at 80° C. in the sauna; gravimetric vs untreated site; 16 subjects
Method: 1. In Vivo Test for Antiperspirant Activity
To determine the antiperspirant effect, an antiperspirant study was performed on the backs of 16 test persons. A 5.0% by weight aqueous solution of a phosphonate compound of the Formula (I) with a=b=1, R=*—(CH2)x—PO3X^+Y^+ group where x=1 and X^+=Y^+=hydrogen or Na^+ was prepared for this purpose.
75 μL of the prepared solution were applied on the back of 16 subjects on one side next to the spine. After 5 minutes, the treated sites were covered with occlusive non-adsorbent film. These non-adsorbent pads were removed after 2 hours. The compositions were each applied to the backs of the subjects for four consecutive days in the manner previously described. 24 h after the last application of the composition, absorbent pads were applied to the backs of the subjects at the sites where the compositions were previously applied. Furthermore, pads, which served as a control, were also applied on the other side of the spine at the same height. After the subjects had sweat for about 15 minutes at 80° C. in the sauna, the amount of perspiration absorbed by the pads was determined gravimetrically, wherein each composition was compared with the corresponding untreated site on the back. The sweat reduction was determined from the gravimetric determination of the amount of sweat, wherein all determined values were statistically significant.

`O=P(O)(O)CN(CP(=O)(O)O)CP(=O)(O)O` [phosphonate compound of Formula (I), aminotrimethylene phosphonate] was tested, and the sweat reduction was 10.1%.
